# From patent US5773005A, “Purified flavonoid and diterpene 5α-reductase inhibitors from thuja orientalis for androgen-related diseases” (priority 1995, dated 1998)
# Columns and labels:
# [1] = test system: acne patients; test: Treatment of acne patients with diterpene lotion, scored (Example 9); assay type: in vivo, human; settings: lotion with 1% diterpene, twice a day, group score of 6 patients (3 cured completely, 2 half cured, 1 cured 30%, 0 not cured), highest 18; for Score, 1 mo.: 1 month; for Score, 2 mo.: 2 months
# Description: Patients in their twenties who were suffering from acne were divided into five groups each consisting of 3 males and 3 females and treated with a lotion of the following formula prepared in accordance with the invention. |Ethanol 50% |1,3-Butylene glycol | 20% |HCO-60 3% |Diterpene 1% |Purified water 26% The lotion was applied to the diseased part of a patient's face after washing with takallophene soap and the treatment was conducted daily on a twice-a-day basis for a period of 2 months. The acne in each patient was diagnosed as being moderate and a mixture of comedones (primarily whiteheads), papules and pustules. The results were evaluated by the following criteria: 3, cured completely; 2, half cured; 1, cured 30%; 0, not cured. The highest score was 18 and the lowest score was 0.
# [2] = test system: male pattern baldness in stage V; test: Therapeutic effect on male pattern baldness in stage V, scored (Example 10); assay type: in vivo, human; set-up: key: 10: alopecic area decreased to 1/5 or less and hair density increased by 2/3 or more; 7: alopecic area decreased to 1/3 or less and hair density increased by 1/3 or more; 4: alopecic area decreased to 1/2 or less and hair density increased by 1/5 or more; alopecic area decreased by 20% and hair density increased by 10% or more; 1: alopecic area hardly changed but hair density increased definitely; 0: no change at all; settings: formula with 1% diterpene, twice a day; for Score, 0 mo.: 0 months; for Score, 1 mo.: 1 month; for Score, 2 mo.: 2 months; for Score, 4 mo.: 4 months; for Score, 6 mo.: 6 months
# Description: Diterpenes of the invention were evaluated for their therapeutic effects on male pattern baldness in stage V. The curatives were prepared in accordance with the formula set forth in Table 11. | Ethanol 50% | Propylene glycol | 10% | HCO-60 3% | Diterpene 1% | Purified water | 36% The curatives were applied to the bald area of male volunteers (aged 27-45) in five groups each consisting of 5 cases. The application was done daily on a twice-a-day basis and continued for 6 months. The therapeutic efficacy was evaluated by the following criteria based on the decrease in the area of the parietal alopecic lesion and the density of regrowing hairs: 10 (alopecic area decreased to 1/5 or less and hair density increased by 2/3 or more); 7 (alopecic area decreased to 1/3 or less and hair density increased by 1/3 or more); 4 (alopecic area decreased to 1/2 or less and hair density increased by 1/5 or more); 2 (alopecic area decreased by 20% and hair density increased by 10% or more); 1 (alopecic area hardly changed but hair density increased definitely); 0 (no change at all).
# [3] = test system: androgen-dependent human prostatic cancer strain HONDA; test: Growth control of androgen-dependent human prostatic cancer strain HONDA in nude mice (Example 15); assay type: in vivo, human (transplanted in BALB/CA-nu/nu mice); settings: once a day, 28 days; for control of tumor growth (HONDA): peroral in 0.5% CMC
# Description: Seven-week old BALB/CA-nu/nu mice were transplanted with androgen-dependenthuman prostatic cancer strain HONDA beneath the dorsal skin and 6-week old BALB/CA-nu/nu mice were transplanted with androgen-dependent rat prostatic cancer strain […] beneath the dorsal skin. When the respective tumors grew to a specified size, the animals were divided into test and control groups. The test groups were administered with suspensions of trans-communic acid and flutamide in 0.5% CMC. The control groups were administered with 0.5% CMC alone. The drugs and the vehicle were administered perorally via an oral probe. The administration was repeated daily for 28 consecutive days on a once-a-day basis. The tumor volume (mm^3) was calculated by the formula of major axis (mm) × the square of minor axis (mm^2)/2.
# [4] = test system: hirsute male volunteers; test: Hair regrowth on wax-depilated legs of hirsute male volunteers (Example 13); assay type: in vivo, human; settings: 0.1% in 50% ethanol, twice a day, 3 months, control section indistinguishable from surrounding area
# Description: An experiment was conducted on 5 hirsute male volunteers aged 25-48. The center of each straight leg was depilated with wax to create a lesion about 2 cm wide and 3 cm long. […] The application was done daily on a twice-a-day basis for 3 consecutive months.
# [5] = test system: women suffering from idiopathic hirtuism; test: Women suffering from idiopathic hirsutism, depilated right forearm (Example 14); assay type: in vivo, human; settings: 0.1% in 50% ethanol, twice a day
# Description: Five women (aged 20-35) suffering from idiopathic hirtuism were treated with 0.1% trans-communic acid in 50% ethanol that was applied daily to a wax depilated area of the right forearm on a twice-a-day basis. Depilation was repeated every other month until the end of the experiment.
# Measurements were conducted on the hairs attached to the cloth used for wax depilation.
# [6] = test system: androgen-dependent rat prostatic cancer strain R3327-G; test: Growth control of androgen-dependent rat prostatic cancer strain R3327-G in nude mice (Example 15); assay type: in vivo, rat (transplanted in BALB/CA-nu/nu mice); settings: castrated mice given 25 mg testosterone enanthat per head; peroral, once a day, 28 days
# Description: Seven-week old BALB/CA-nu/nu mice were transplanted with androgen-dependenthuman prostatic cancer strain HONDA beneath the dorsal skin and 6-week old BALB/CA-nu/nu mice were transplanted with androgen-dependent rat prostatic cancer strain R3327-G beneath the dorsal skin. When the respective tumors grew to a specified size, the animals were divided into test and control groups. The test groups were administered with suspensions of trans-communic acid and flutamide in 0.5% CMC. The control groups were administered with 0.5% CMC alone. The drugs and the vehicle were administered perorally via an oral probe. The administration was repeated daily for 28 consecutive days on a once-a-day basis. The tumor volume (mm^3) was calculated by the formula of major axis (mm) × the square of minor axis (mm^2)/2.
# The growth of cancer strain R3327-G was not controlled in castrated mice when they were administered 25 mg of testosterone enanthat per head concurrently with the cancer transplantation.
# [7] = test system: male pattern baldness in stage V; test: Efficacy against male pattern baldness in stage V, male volunteers (Example 4); assay type: in vivo, human; settings: 1% in 50% alcohol, twice a day, 4 months
# Description: The 5α-reductase inhibitors extracted from Thuja orientalis were examined for their efficacy against male pattern baldness in stage V. The test samples were components A, B and C, as well as the terpenoid isolated from component A and the (iso)scutellarein isolated from component B, which were each dissolved at a concentration of 1% in 50% alcohol. These samples were daily applied on a twice-a-day basis for a period of 4 months to the bald heads of 27-45 year old male volunteers in five groups each consisting of 5 cases.
# [8] = test system: male hirsute volunteers; test: Suppression of hair regrowth in male hirsute volunteers, wax-depilated inferior limbs (Example 5); assay type: in vivo, human; settings: 1% in 50% alcohol
Molecule,"Score, 1 mo. [1]","Score, 2 mo. [1]","Score, 0 mo. [2]","Score, 1 mo. [2]","Score, 2 mo. [2]","Score, 4 mo. [2]","Score, 6 mo. [2]",control of tumor growth (HONDA) [3],also measured
"CC(C)C(=O)Nc1ccc([N+](=O)[O-])c(C(F)(F)F)c1 [Flutamide, reference compound]",4,8,0,1,2,2,4,effective in tumor control,efficacy of flutamide relative to trans-communic acid (HONDA) ([3]; peroral): considerably weaker than that of trans-communic acid
"C=C/C(C)=C/CC1C(=C)CCC2C(C)(C(=O)O)CCCC12C (stereo not drawn) [Sample I, (E)8(17),12,14-labdatrien-19-oic acid]",8,18,0,1,4,7,10,could control the growth of this cancer significantly in a dose-dependent manner,"Regrowth of hair, test section, case A ([4]; case A): No regrowth of hair; Regrowth of hair, test section, case B ([4]; case B): No regrowth of hair; Regrowth of hair, test section, case C ([4]; case C): Regrowth of a few hair; Regrowth of hair, test section, case D ([4]; case D): No regrowth of hair; Regrowth of hair, test section, case E ([4]; case E): No regrowth of hair; Hair length (peaked at), sixth measurement, case A ([5]; case A, before treatment: peaked at ca. 10 mm): ca. 10 mm; Hair density, sixth measurement, case A ([5]; case A, before treatment: thick): sparse; Hair length, sixth measurement, case B ([5]; case B, before treatment: peaked at ca. 6 mm): ca. 1 mm; Hair density, sixth measurement, case B ([5]; case B, before treatment: thick): a few; Hair length, sixth measurement, case D ([5]; case D, before treatment: peaked at ca. 8 mm): ca. 2 mm; Hair density, sixth measurement, case D ([5]; case D, before treatment: thick): a few; tumor size at 20 mg/kg vs flutamide 200 mg/kg (HONDA) ([3]; trans-communic acid 20 mg/kg, peroral): almost comparable to that of the group administered with 200 mg/kg of flutamide; control of tumor growth (R3327-G) [6]: could effectively control the growth of cancer in a dose-dependent manner; efficacy relative to flutamide (R3327-G) [6]: considerably stronger than that of flutamide"
"C=C/C(C)=C/CC1C(=C)CCC2C(C)(C)CCCC12C (stereo not drawn) [Sample II, (E)8(17),12,14-labdatriene]",10,18,0,1,4,7,10,,
"C=C/C(C)=C/CC1C(=C)CCC2C(C)(CO)CCCC12C (stereo not drawn) [Sample III, (E)8(17),12,14-labdatrien-19-ol]",9,18,0,0,4,7,10,,
(iso)scutellarein,,,,,,,,,"regrowth of hair [7]: pronounced regrowth of hair; regrowth of hair as compared to the control section ([8]; topical, control 50% alcohol alone): significantly suppressed; regrowth of hair in the test sections when the experiment ended ([8]; 3 months): barely recognizable"
